From US8778932B2, “Dihydro-oxazolobenzodiazepinone compounds, a process for there preparation and pharmaceutical compositions containing them” (Les Laboratoires Servier, priority 2011, dated 2014) come the findings set out here.

The IC50 is the point on the concentration scale where inhibition reaches its midpoint.

Assay [1] has as its target HEK-293 cells stably expressing the subunit α5 of the human GABAA receptor, and also the subunits beta2 (short) and gamma2 (long) (Homo sapiens (Human), UniProt P18507+P31644+P47870). As to the kind of experiment: GABAA receptor activity study (membrane potential, FMP marker, FlexStation3). In kind it is cell-based. The settings on record: 40 min preincubation, then GABA, read-out: alpha5 IC50. As for the experimental part:
(§1) The compounds are tested on HEK-293 (Human Embryonic Kidney) cells stably expressing the subunit α5 of the human GABAA receptor, and also the subunits beta2 (short) and gamma2 (long). The cells are maintained in the presence of a selection of three antibiotics—neomycin, zeocin and puromycin—in a Dulbecco medium (DMEM) containing 10% (v/v) foetal bovine serum. On the day before the experiment, the cells are transferred to 96-well plates (in a density of 50,000 cells/well). The cells are then preincubated for 40 minutes with the compounds under test and are treated with GABA. The membrane potential is monitored using a blue FMP marker (Molecular Devices), following the instructions of the manufacturer. The responses are recorded for 120 seconds on a FlexStation3 plate reader (Molecular Devices, USA). The IC50 values of the tested compounds are determined by curve adjustment obtained by non-linear regression using SoftMax Pro software (Molecular Devices, USA).

Assay [2] deals with HEK-293 cells stably expressing the subunit α5 of the human GABAA receptor, and also the subunits beta2 (short) and gamma2 (long) (Homo sapiens (Human), UniProt P31644). The assay is described as above. It is filed as cell-based. The following applies: 40 min preincubation, then GABA, read-out: alpha5 IC50. The procedure:
as §1

Assay [3] relates to male NMRI mice. As to the kind of experiment: Occlusion of the middle cerebral artery (MCA) in the mouse. The following applies: doses of 1, 3 and 10 mg/kg i.p., 30 minutes after MCA occlusion, FIG. 5. In kind it is in vivo. The procedure:
Permanent focal cerebral ischaemia is produced by electrocoagulation of the left MCA (according to the method of Welsh F A et al., J. Neurochem. 1987, 49, 846-851). Male NMRI mice are anaesthetised using 2,2,2-tribromoethanol (500 mg/kg i.p., 20 ml/kg). An incision is made in the left temporo-parietal region of the head between the orbit and the ear. The temporal muscle is then incised and folded back to expose the skull. A small trepanation hole is drilled in the outer lateral part of the skull just to the level of the MCA, and the trunk of the MCA is then occluded by electrocoagulation.
The compounds of the invention are administered by the i.p. route 30 minutes after occlusion of the MCA. Two days later, the animals are deeply anaesthetised using sodium pentobarbital (60 mg/kg i.p., 10 ml/kg) perfused through the heart with a 4% 2,3,5-triphenyltetrazolium chloride solution. The animals are finally decapitated, and the brains are extracted and placed for at least 24 hours in a saline solution containing 8% formaldehyde. Measurement of the necrosed surface area is determined using an image analysis system (DigiCell for Windows 4.0).

For assay [4], the system named is male NMRI mice. As to the kind of experiment: Test for recognition of new objects, in the mouse. The following applies: i.p. It is filed as in vivo. The procedure:
This test measures non-spatial working memory in the rodent. It is based on the natural tendency of the animal to spend more time exploring a new object than a familiar object.
On Day 0 (familiarisation phase), male NMRI mice are placed in a black PVC box (32×45×27 cm) without an object, for 2.5 minutes. On the first day the mice are free to explore two identical objects for 3 minutes (acquisition phase). On the second day one of the objects is replaced by a new object and the duration of exploration is timed for each object over a period of 4 minutes (retention phase). Pretreatment with the compounds of the invention is carried out by the i.p. route on the day of the acquisition phase. The duration of exploration is measured by the TSE System software (TSE System GmbH, Bad Homburg, Germany),

In the next assay the test system is rats. As to the kind of experiment: Radial maze test in the rat (ketamine-induced memory deficit). The settings on record: dose-dependent from 0.3 to 3 mg/kg p.o., ketamine 10 mg/kg i.p., FIG. 4. In kind it is in vivo. The source says: This test is widely used to evaluate working and referential memory in the rodent. The apparatus consists of a small central octagonal platform from which there radiate eight different, equally spaced corridors. At the end of each corridor there is food, which is not visible from the central platform. In the experiment, all the corridors contain a reward and the animal has to visit each of the corridors just once. Each further visit is considered an error.
On the first day of the experiment the rats are deprived of food for 24 hours. Learning starts on the following day. The rats are placed on the central platform of the maze, each of the eight corridors having been provided with food. The animals are free to eat the food in the eight corridors. If a rat has not eaten all of the food within 20 minutes, it is withdrawn from the maze.
The experiments are continued once a day until the animals attain the determined objective, namely obtaining a total number of errors—that is to say, of any further visits to a corridor—of less than 3. These animals are included in the rest of the study. On the last day, the selected rats are treated p.o. with ketamine (10 mg/kg i.p.) co-administered either with a carrier or with a compound of the invention. The tests start 120 minutes after administration. Each test lasts a maximum of 5 minutes.

HEK-293 cells stably expressing the subunit α5 of the human GABAA receptor, and also the subunits beta2 (short) and gamma2 (long) (Homo sapiens (Human), UniProt P18507+P31644+P47870), sequence (P31644 32-462): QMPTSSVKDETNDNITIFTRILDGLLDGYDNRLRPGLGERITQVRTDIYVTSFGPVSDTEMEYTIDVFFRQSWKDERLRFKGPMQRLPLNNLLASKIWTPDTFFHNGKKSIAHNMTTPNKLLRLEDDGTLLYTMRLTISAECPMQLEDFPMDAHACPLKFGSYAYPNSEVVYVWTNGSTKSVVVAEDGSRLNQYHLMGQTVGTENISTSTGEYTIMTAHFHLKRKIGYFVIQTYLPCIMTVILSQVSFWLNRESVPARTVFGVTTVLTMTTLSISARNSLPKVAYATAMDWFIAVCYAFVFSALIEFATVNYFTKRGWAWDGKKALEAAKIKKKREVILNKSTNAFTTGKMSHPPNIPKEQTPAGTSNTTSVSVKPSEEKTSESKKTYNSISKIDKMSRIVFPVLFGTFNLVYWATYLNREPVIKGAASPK
HEK-293 cells stably expressing the subunit α5 of the human GABAA receptor, and also the subunits beta2 (short) and gamma2 (long) (Homo sapiens (Human), UniProt P18507+P31644+P47870), sequence (P47870 25-512 partner): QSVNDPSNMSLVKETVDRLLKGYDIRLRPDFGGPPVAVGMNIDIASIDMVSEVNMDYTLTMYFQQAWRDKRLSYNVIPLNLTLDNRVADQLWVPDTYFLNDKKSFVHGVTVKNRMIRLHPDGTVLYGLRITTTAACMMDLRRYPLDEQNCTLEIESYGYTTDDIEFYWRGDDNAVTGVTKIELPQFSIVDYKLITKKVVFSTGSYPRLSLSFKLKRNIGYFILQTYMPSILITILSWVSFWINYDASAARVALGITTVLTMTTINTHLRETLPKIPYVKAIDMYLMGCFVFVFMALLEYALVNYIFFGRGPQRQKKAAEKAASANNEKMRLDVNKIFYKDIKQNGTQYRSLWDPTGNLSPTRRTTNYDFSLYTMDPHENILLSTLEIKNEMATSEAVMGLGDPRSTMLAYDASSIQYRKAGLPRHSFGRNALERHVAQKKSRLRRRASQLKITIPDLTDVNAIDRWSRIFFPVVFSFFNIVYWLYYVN
HEK-293 cells stably expressing the subunit α5 of the human GABAA receptor, and also the subunits beta2 (short) and gamma2 (long) (Homo sapiens (Human), UniProt P18507+P31644+P47870), sequence (P18507 40-475 partner): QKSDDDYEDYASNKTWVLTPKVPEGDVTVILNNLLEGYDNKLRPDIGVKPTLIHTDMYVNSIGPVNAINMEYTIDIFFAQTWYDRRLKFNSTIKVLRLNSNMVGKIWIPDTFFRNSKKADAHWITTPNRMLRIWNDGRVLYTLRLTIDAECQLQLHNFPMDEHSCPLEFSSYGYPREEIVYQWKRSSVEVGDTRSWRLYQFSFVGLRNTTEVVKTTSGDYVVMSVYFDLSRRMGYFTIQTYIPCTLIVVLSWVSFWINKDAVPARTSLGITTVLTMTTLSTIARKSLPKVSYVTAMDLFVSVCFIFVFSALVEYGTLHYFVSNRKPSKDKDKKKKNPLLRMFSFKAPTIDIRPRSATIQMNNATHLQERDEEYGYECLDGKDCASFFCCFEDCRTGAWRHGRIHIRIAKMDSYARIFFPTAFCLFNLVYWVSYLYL
HEK-293 cells stably expressing the subunit α5 of the human GABAA receptor, and also the subunits beta2 (short) and gamma2 (long) (Homo sapiens (Human), UniProt P31644), sequence (P31644 32-462): as the sequence (P31644 32-462) above
HEK-293 cells stably expressing the subunit α5 of the human GABAA receptor, and also the subunits beta2 (short) and gamma2 (long) (Homo sapiens (Human), UniProt P31644), sequence (P47870 25-512 partner): as the sequence (P47870 25-512 partner) above
HEK-293 cells stably expressing the subunit α5 of the human GABAA receptor, and also the subunits beta2 (short) and gamma2 (long) (Homo sapiens (Human), UniProt P31644), sequence (P18507 40-475 partner): as the sequence (P18507 40-475 partner) above

Turning to `CC1=NN=C(c2cc3cc(Cl)ccc3s2)c2cc3oc(=O)[nH]c3cc2C1` [Example 32, 5-(5-chloro-1-benzothien-2-yl)-8-methyl-1,9-dihydro-2H-[1,3]-oxazolo[4,5-h][2,3]benzodiazepin-2-one], the IC50 in assay [1] worked out at 172 nM.
For `CC1=NN=C(c2sc3cccc(C(F)(F)F)c3c2Cl)c2cc3oc(=O)[nH]c3cc2C1` [Example 9, 5-[3-chloro-4-(trifluoromethyl)-1-benzothien-2-yl]-8-methyl-1,9-dihydro-2H-[1,3]oxazolo[4,5-h][2,3]benzodiazepin-2-one], the IC50 in assay [2] was found to be 250 nM.
Consider `CC1=NN=C(c2cc3c(F)cccc3s2)c2cc3oc(=O)[nH]c3cc2C1` [Example 21, 5-(4-fluoro-1-benzothien-2-yl)-8-methyl-1,9-dihydro-2H-[1,3]oxazolo[4,5-h][2,3]benzodiazepin-2-one], for which the “inhibition of cerebral damage (necrosed surface area)” value in the assay with male NMRI mice [3] is “significantly inhibits cerebral damage”. Further, the “procognitive effect in the object recognition model” value (from here on “procognitive effect”) with male NMRI mice [4] (doses of 0.01, 0.03 and 0.1 mg/kg, FIG. 1) was “significant procognitive effect”. In addition, in the assay with rats, the “reversal of ketamine-induced referential memory deficit” value was “significantly reverses the ketamine-induced referential memory deficit”. The IC50 in assay [2] was found to be 200 nM.
In the case of `CC1=NN=C(c2cc3c(C(F)(F)F)cccc3s2)c2cc3oc(=O)[nH]c3cc2C1` [Example 31, 8-methyl-5-[4-(trifluoromethyl)-1-benzothien-2-yl]-1,9-dihydro-2H-[1,3]oxazolo[4,5-h][2,3]benzodiazepin-2-one], the “procognitive effect” value in the assay with male NMRI mice [4] (dose of 1 mg/kg, FIG. 2) is “significant procognitive effect”. In addition, the IC50 in assay [2] worked out at 500 nM.
In the case of `CC1=NN=C(c2cc3ccccc3s2)c2cc3oc(=O)[nH]c3cc2C1` [Example 6, 5-(1-benzothien-2-yl)-8-methyl-1,9-dihydro-2H-[1,3]oxazolo[4,5-h][2,3]benzodiazepin-2-one], in assay [2], the IC50 was 130 nM.
In the case of `CC1=NN=C(c2cc3ccc(F)cc3s2)c2cc3oc(=O)[nH]c3cc2C1` [Example 36, 5-(6-fluoro-1-benzothien-2-yl)-8-methyl-1,9-dihydro-2H-[1,3]oxazolo[4,5-h][2,3]benzodiazepin-2-one], in the assay with male NMRI mice [4] (dose of 10 mg/kg, FIG. 3), the “procognitive effect” value is reported as “significant precognitive effect”. The IC50 in assay [2] was determined as 100 nM.
With `CC1=NN=C(c2cc3cccc(F)c3s2)c2cc3oc(=O)[nH]c3cc2C1` [Example 40, 5-(7-fluoro-1-benzothien-2-yl)-8-methyl-1,9-dihydro-2H-[1,3]-oxazolo[4,5-h][2,3]benzodiazepin-2-one], in assay [1], the IC50 amounted to 227 nM.
Same read-out and setting: under `CC1=NN=C(c2ccc3ncccc3c2)c2cc3oc(=O)[nH]c3cc2C1` [Example 5, 8-methyl-5-(6-quinolyl)-1,9-dihydro-2H-[1,3]oxazolo[4,5-h][2,3]-benzodiazepin-2-one] stands 430 nM.
